Key:
[1] = tested on: castor oil-induced diarrhea in albino rats; assay: Castor oil-induced diarrhea (weight of faeces, rate of defecation); format: in vivo, Swiss albino rats; conditions: STD group, 10 mg/kg i.p.
Procedure: (§1) The anti-diarrheal activity of the hazardless and stable aqua-regia in terms of reduction of rate of defecation and consistency of faeces was tested on albino rats. In an embodiment, Swiss albino rats weighing 150-180 g of either sex were selected for the experiment. Animals were allowed to acclimatize for a period of 2 weeks in laboratory environment by housing them in a plurality of polypropylene cages. The polypropylene cages were maintained under standard laboratory conditions at an ambient temperature of 25° C. with 35%-60% humidity. Animals were fed with standard rat pellet diet.
Loperamide (standard reference anti-diarrheal drug), castor oil (laxative agent), and normal saline solution (0.9% NaCl) were used. […]
Animals of all the groups were placed separately in individual cages lined with filter paper. The filter paper was changed every 1 hour and the severity of diarrhea was assessed hourly for two hours. The total weight of faeces excreted were recorded within a period of two hours and compared with that of the control group. […]
(§2) Data were analyzed by one-way ANOVA followed by Dunnett's t-test using computerized Graph Pad InStat version 3.05.

[2] = tested on: intestinal transit of charcoal meal in albino rats; assay: Gastrointestinal motility test (charcoal meal transit); format: in vivo, Swiss albino rats; conditions: charcoal meal one hour after dosing, sacrificed thirty minutes later; aqua-regia 0.03 ml, atropine sulphate 0.1 mg/kg; control group 84.46%
Procedure: as §1, with “use” for “anti-diarrheal activity”, “rehydrating body cells” for “terms of reduction of rate of defecation and consistency of faeces”
Atropine sulphate (standard reference anti-diarrheal drug), charcoal meal (10% activated charcoal in 5% gum acacia) and vehicle (2% v/v Tween 80 in distilled water) were used. […]
The gastrointestinal motility test was conducted to illustrate use of aqua-regia in rehydrating body cells, according to an embodiment herein. […] The distance travelled by the charcoal meal was calculated. The distance covered by the charcoal meal in the intestine was expressed as a percentage of the total distance travelled from the pylorus to the caecum of each animal.
as §2

Compound	diarrheal symptoms [1]	percentage transit (distance covered by charcoal meal as percentage of distance from pylorus to caecum) [2]
CN(C)C(=O)C(CCN1CCC(O)(c2ccc(Cl)cc2)CC1)(c1ccccc1)c1ccccc1 [loperamide, Loperamide]	does not possess any diarrheal symptoms	–
CN1[C@@H]2CC[C@H]1CC(OC(=O)C(CO)c1ccccc1)C2.CN1[C@@H]2CC[C@H]1CC(OC(=O)C(CO)c1ccccc1)C2.O=S(=O)(O)O (some centres unmarked) [standard drug, Atropine sulphate]	–	55.57%

— patent US20120128795A1, “COLORLESS, NON-FUMING, HAZARDLESS AND STABLE AQUA-REGIA, ITS PREPARATION METHOD AND USE IN TREATING MEDICAL DISORDERS” (priority 2010, published 2012)
